Laboratory results as given in patent EP0745083B1, “2-HETEROARYL-5,11-DIHYDRO-6H-DIPYRIDO [3,2-b:2',3'-e][1,4]DIAZEPINES AND THEIR USE IN THE PREVENTION OR TREATMENT OF HIV INFECTION” (BOEHRINGER INGELHEIM PHARMACEUTICALS INC., priority 1994, dated 1995).

Assays:
[1] = biological target: T1, HIV-1 RT wild type (WT) enzyme (Human immunodeficiency virus type 1 group M subtype B, UniProt P03367); assay: Reverse Transcriptase (RT) Assay, wild type enzyme (RNA-dependent DNA polymerase activity); assay type: biochemical, Human Immunodeficiency Virus (HIV-1); conditions: 1 µM compound, read-out: Reverse Transciptase Assay % inhibition (1 µM) WT
T1 construct: Reverse transcriptase enzyme from the LAV strain of Human Immunodeficiency Virus (HIV-1) (1) was isolated from the bacterial strain JM109; made in house; host or cells: E. coli JM109 (clone pBRTprt1+ in vector pIBI21, lac promoter)
Description: Utilizing the Reverse Transcriptase (RT) Assay described below, compounds can be tested for their ability to inhibit the RNA-dependent DNA polymerase activity of HIV-1 RT. Certain specific compounds described in the Examples which appear below, were so tested.
Among the enzymes for which Human Immunodeficiency Virus (HIV-1) encodes is a reverse transcriptase (1), so-named because it transcribes a DNA copy from an RNA template. This activity can be quantitatively measured in a cell-free enzyme assay, which has been previously described (2), and is based upon the observation that reverse transcriptase is able to use a synthetic template [poly r(C) primed with oligo d(G)] to transcribe a radio-labelled, acid-precipitable DNA strand utilizing ^3H-dGTP as a substrate. The assay described below utilizes the wild type (WT) enzyme, which is the predominant form of the enzyme observed in patients infected with HIV-1. Utilization of mutant RT eraymes (Y181C and Y181L, prepared by site-directed mutagenesis in which the tyrosine residue at codon 181 has been replaced by a cysteine or a leucine residue, respectively) and analogous assay conditions allows compounds to be evaluated for their effectiveness at inhibiting these mutant enzymes.
Reverse transcriptase enzyme from the LAV strain of Human Immunodeficiency Virus (HIV-1) (1) was isolated from the bacterial strain JM109 (3) expressing the DNA clone pBRTprt1+ (2) which is under the control of the lac promotor in the expression vector pIBI21 (4). An overnight culture grown in 2XYT medium (37°C, 225 rpm) (5) supplemented with 100 µg/mL ampicillin for positive selection is inoculated at a 1:40 dilution into M9 medium supplemented with 10µg/mL thiamine, 0.5% casamino acids, and 50 µg/mL ampicillin (5). The culture is incubated (37°C, 225 rpm) until it reaches an OD540 of 0.3-0.4. At that time the repressor inhibitor IPTG (isopropyl β-D-thiogalactopyranoside) is added to 0.5mM, and the mixture is incubated for 2 additional hours. Bacteria are pelleted, resuspended in a 50mM Tris, 0.6mM EDTA, 0.375M NaCl buffer and digested by the addition of lysozyme (1mg/mL) for 30 minutes on ice. The cells are lysed by the addition of 0.2% NP-40 and brought to 1M NaCl.
After removal of the insoluble debris by centrifugation, the protein is precipitated by the addition of 3 volumes of saturated aqueous ammonium sulfate. The enzyme is pelleted, resuspended in RT buffer (50mM Tris pH 7.5, 1mM EDTA, 5mM DTT, 0.1% NP-40, 0.1M NaCI, and 50% glycerol), and stored at -70°C for further use.
The 2X concentrated stock reaction mixture is aliquoted and stored at -20°C. The mixture is stable and thawed for use in each assay. This enzyme assay has been adapted to a 96 well microtiter plate system, and has been previously described (6). Tris buffer (50 mM, pH 7.4), vehicle (solvent diluted to match the compound dilution), or compounds in vehicle are dispensed into 96-well microtiter plates (10µL/well; 3 wells/ compound). The HIV-1 RT enzyme is thawed, diluted in 50mM Tris pH 7.4 so that fifteen µL of diluted enzyme contain 0.001 Unit (one unit is that amount of enzyme to transform 1 micromole of substrate per minute at 25°C), and fifteen µL are dispensed per well. Twenty µL of 0.12-0.5M EDTA are added to the first three wells of the microtiter plate. EDTA chelates the Mg^++ present and prevents reverse transcription. This group serves as background polymerization which is subtracted from all other groups. Twenty-five ul of the 2X reaction mixture are added to all wells and the assay is allowed to incubate at room temperature for 60 minutes. The assay is terminated by precipitating the DNA in each well with 50µL of 10% trichloracetic acid (TCA) (10% w/v) in sodium pyrophosphate (1% w/v). The microtiter plate is incubated for 15 minutes at 4°C and the precipitate is fixed onto #30 glass fiber paper (Schleicher & Schuell) using a Skatron semi-automatic harvester. […]

[2] = MTT assay (cytotoxicity); assay type: cell-based; conditions: human; H9 cells; five days incubation
Procedure: In order to roughly assess the cytotoxicity of the compounds provided by the invention, several such compounds were tested in the MTT Assay described below. Compounds having a relatively high CC50 are preferred.
The MTT [3-(4,5-dimethylthiazol-2-yl)-2,5 diphenyl tetrazolium bromide) assay is based on cleavage of tetrazolium bromide by metabolically active cells, resulting in a highly quantitative blue color. This assay has been previously described (1) but has been optimized for the purposes of the testing reported herein.
The H9 cell line (2), an established human lymphoma suspension cell line grown in RPMI 1640 supplemented with 10% fetal bovine serum, is used as the target cell line in the assay. Cells (100µL) are plated in microtest plate wells at a concentration of 10^5 cells per mL in the presence of varying concentrations of inhibitor. The cells are incubated at 37°C in a humidified CO2 incubator. Five days later, 20µL of MTT (5mg/mL in RPMI 1640, sonicated, 0.2 micron filtered, and stored at 4°C) is added to each well. After 4 hours additional incubation at 37°C, 60µL of Triton-X is added to each well and thoroughly mixed to aid the solubilization of the crystals. Absolute ethanol (5µL) is added to each well and the resulting mixture is incubated for 30 minutes at 60°C and immediately read on a plate reader (Dynatech) at a wavelength of 570nm.
Data from this assay are used to generate a nonlinear regression analysis which yields an CC50.

Structure (SMILES) | inhibition at 1 µM [1] | CC50 at 120 h [2]
CCN1c2ncccc2C(=O)N(C)c2ccc(-c3cn[nH]c3)nc21 [Example 1, 5,11-Dihydro-11-ethyl-5-methyl-2-(4-pyrazolyl)-6H-dipyrido[3,2-b:2'3'-e][1,4]diazepin-6-one] | 97% | > 60 µM
CN1C(=O)c2cccnc2N(C2CC2)c2nc(-c3cn[nH]c3)ccc21 [Example 6, 5,11-Dihydro-5-methyl-11-c-propyl-2-(4-pyrazolyl)-6H-dipyrido[3,2-b:2',3'-e][1,4]diazepin-6-one] | 94% | > 60 µM
CCN1c2ncccc2C(=O)N(C)c2ccc(-c3cc[nH]c3)nc21 [Example 12, 5,11-Dihydro-11-ethyl-5-methyl-2-(3-pyrrolyl)-6H-dipyrido[3,2-b:2',3'-e][1,4]diazepin-6-one] | 95% | > 50 µM
CN1C(=O)c2cccnc2N(C2CC2)c2nc(-c3cc[nH]c3)ccc21 [Example 25, 11-Cyclopropyl-5,11-dihydro-5-methyl-2-(3-pyrrolyl)-6H-dipyrido[3,2-b:2',3'-e][1,4]diazepin-6-one] | 92% | > 80 µM
